These results are taken from publication PMC11272821, “Mechanistic safety assessment via multi-omic characterisation of systemic pathway perturbations following in vivo MAT2A inhibition” (Archives of Toxicology, 2024).

For one assay, the target named is T1, 5-HT2B receptor (Homo sapiens, UniProt P41595).
T1 construct: Eurofins
As to the kind of experiment: Radioligand binding assay. As for the experimental part:
(§1) Secondary pharmacology assays were performed at Eurofins using standard experimental techniques against a total of 86 targets across a broad pharmacological space. Assay details along with experimental protocols are described at https://www.eurofinsdiscoveryservices.com. […] Assays measuring substrate turnover or phosphorylation by isolated proteins were used for kinase and enzyme targets, allowing direct determination of the mode of action of the compounds. […] Assays were run in eight points concentration response mode with half log dilutions and IC50, EC50 or Ki (Cheng and Prusoff [1973]) values determined.

A further assay addresses T2, 5-HT4 receptor (Homo sapiens, UniProt Q13639).
T2 construct: Eurofins
As to the kind of experiment: Radioligand binding assay. As for the experimental part: as §1

The target in another assay is T3, 5-HT7 receptor (Homo sapiens, UniProt P34969).
T3 construct: Eurofins
As to the kind of experiment: Radioligand binding assay. As for the experimental part:
as §1

The target of another assay is T4, A1 adenosine receptor (Homo sapiens, UniProt P30542).
T4 construct: purchased Eurofins
The experiment in a line: Radioligand binding assay. As for the experimental part:
as §1

In a further assay the target is T5, A2A adenosine receptor (Homo sapiens, UniProt P29274).
T5 construct: Eurofins
As to the kind of experiment: Radioligand binding assay. As for the experimental part:
as §1

The next assay addresses T6, AT1 angiotensin receptor (Homo sapiens, UniProt P30556).
T6 construct: Eurofins
The experiment in a line: Radioligand binding assay. Here is the method: as §1

The target in a further assay is T7, CB1 cannabinoid receptor (Homo sapiens, UniProt P21554).
T7 construct: purchased Eurofins
The experiment in a line: Radioligand binding assay. Here is the method:
as §1

Assay [1] addresses T8, CCK1 cholecystokinin receptor (Homo sapiens, UniProt P32238).
T8 construct: Eurofins
As to the kind of experiment: Radioligand binding assay. As for the experimental part: as §1

In another assay the target is T9, D1 dopamine receptor (Homo sapiens, UniProt P21728).
T9 construct: Eurofins
The experiment in a line: Radioligand binding assay. Here is the method:
as §1

Assay [2] has as its target T10, Dopamine transporter (DAT) (Homo sapiens, UniProt Q01959).
T10 construct: Eurofins
As to the kind of experiment: Radioligand binding assay. Here is the method:
as §1

Another assay deals with T11, M1 muscarinic receptor (Homo sapiens, UniProt P11229).
T11 construct: Eurofins
The experiment in a line: Radioligand binding assay. Here is the method: as §1

The next assay addresses T12, M2 muscarinic receptor (Homo sapiens, UniProt P08172).
T12 construct: Eurofins
T12 sequence (P08172 1-466): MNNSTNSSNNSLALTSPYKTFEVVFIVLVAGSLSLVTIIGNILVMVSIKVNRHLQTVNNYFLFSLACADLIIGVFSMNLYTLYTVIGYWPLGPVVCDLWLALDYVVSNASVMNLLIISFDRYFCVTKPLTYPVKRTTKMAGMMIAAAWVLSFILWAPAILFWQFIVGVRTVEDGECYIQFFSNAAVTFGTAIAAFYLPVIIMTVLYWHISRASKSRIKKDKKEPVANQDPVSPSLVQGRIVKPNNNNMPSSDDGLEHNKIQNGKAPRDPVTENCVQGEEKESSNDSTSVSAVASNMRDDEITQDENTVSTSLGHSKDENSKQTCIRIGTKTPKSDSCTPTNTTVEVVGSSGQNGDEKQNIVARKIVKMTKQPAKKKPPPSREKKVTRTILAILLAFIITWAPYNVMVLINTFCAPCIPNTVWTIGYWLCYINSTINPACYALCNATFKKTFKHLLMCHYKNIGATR
As to the kind of experiment: Radioligand binding assay. As for the experimental part:
as §1

The target of assay [3] is T13, Noradrenaline Transporter (NET) (Homo sapiens, UniProt P23975).
T13 construct: Eurofins
As to the kind of experiment: Radioligand binding assay. Here is the method: as §1

The target of assay [4] is T14, Peroxisome proliferator-activated receptor-γ (Homo sapiens, UniProt P37231).
T14 construct: Eurofins
The experiment in a line: Radioligand binding assay. As for the experimental part:
as §1

Assay [5] has as its target T15, SST4 somatostatin receptor (Homo sapiens, UniProt P31391).
T15 construct: Eurofins
As to the kind of experiment: Radioligand binding assay. Here is the method:
as §1

The target of another assay is T16, α1A adrenoceptor (Homo sapiens, UniProt P35348).
T16 construct: Eurofins
As to the kind of experiment: Radioligand binding assay. Here is the method:
as §1

A further assay has as its target T17, α1B adrenoceptor (Homo sapiens, UniProt P35368).
T17 construct: Eurofins
T17 sequence (P35368 1-520): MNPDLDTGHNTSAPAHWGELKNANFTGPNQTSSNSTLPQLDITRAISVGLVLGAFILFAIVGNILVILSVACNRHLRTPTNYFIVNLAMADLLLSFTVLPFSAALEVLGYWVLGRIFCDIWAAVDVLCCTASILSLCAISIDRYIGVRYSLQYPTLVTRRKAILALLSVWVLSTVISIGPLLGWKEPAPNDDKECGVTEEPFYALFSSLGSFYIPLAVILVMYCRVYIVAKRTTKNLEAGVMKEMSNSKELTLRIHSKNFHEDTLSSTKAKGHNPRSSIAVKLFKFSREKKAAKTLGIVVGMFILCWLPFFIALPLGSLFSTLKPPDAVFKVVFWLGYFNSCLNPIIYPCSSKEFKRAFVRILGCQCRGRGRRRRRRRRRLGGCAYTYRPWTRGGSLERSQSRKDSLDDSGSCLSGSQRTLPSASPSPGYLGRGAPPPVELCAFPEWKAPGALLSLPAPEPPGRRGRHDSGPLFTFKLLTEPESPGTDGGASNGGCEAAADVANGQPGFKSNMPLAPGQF
As to the kind of experiment: Radioligand binding assay. As for the experimental part:
as §1

Another assay deals with T18, δ opioid Receptor (Homo sapiens, UniProt P41143).
T18 construct: Eurofins
The experiment in a line: Radioligand binding assay. As for the experimental part: as §1

The target of another assay is T19, κ opioid receptor (Homo sapiens, UniProt P41145).
T19 construct: Eurofins
As to the kind of experiment: Radioligand binding assay. Here is the method: as §1

The next assay has as its system MTAP KO HCT116 xenograft. Details: method as in Atkinson et al. [2024]. As to conditions: ref Atkinson et al. [2024], cited from earlier work.

T13 sequence (P23975 whole entry): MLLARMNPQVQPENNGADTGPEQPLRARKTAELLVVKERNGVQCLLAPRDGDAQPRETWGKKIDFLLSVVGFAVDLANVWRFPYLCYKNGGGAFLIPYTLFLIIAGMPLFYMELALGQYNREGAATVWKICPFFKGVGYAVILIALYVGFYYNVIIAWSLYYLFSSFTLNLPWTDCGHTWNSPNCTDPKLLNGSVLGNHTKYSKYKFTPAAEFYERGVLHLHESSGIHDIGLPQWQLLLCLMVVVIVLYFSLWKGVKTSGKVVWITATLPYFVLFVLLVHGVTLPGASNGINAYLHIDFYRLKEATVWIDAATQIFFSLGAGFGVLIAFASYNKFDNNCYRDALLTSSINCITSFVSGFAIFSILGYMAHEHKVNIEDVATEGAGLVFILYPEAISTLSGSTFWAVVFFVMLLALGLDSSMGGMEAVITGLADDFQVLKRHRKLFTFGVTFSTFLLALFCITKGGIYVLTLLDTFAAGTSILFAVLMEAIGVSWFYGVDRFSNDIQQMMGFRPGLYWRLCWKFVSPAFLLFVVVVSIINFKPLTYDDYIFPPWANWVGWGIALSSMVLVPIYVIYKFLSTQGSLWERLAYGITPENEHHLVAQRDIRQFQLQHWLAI
T19 sequence (P41145 whole entry): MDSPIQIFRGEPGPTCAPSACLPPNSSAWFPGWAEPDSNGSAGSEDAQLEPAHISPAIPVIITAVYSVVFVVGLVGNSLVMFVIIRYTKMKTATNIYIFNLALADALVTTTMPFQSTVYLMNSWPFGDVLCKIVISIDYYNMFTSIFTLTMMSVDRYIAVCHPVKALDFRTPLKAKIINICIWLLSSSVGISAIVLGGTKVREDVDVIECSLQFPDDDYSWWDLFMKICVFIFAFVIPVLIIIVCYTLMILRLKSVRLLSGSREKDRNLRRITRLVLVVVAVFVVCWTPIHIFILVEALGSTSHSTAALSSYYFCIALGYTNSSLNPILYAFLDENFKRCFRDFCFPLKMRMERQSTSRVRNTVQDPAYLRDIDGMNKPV
T16 sequence (P35348 whole entry): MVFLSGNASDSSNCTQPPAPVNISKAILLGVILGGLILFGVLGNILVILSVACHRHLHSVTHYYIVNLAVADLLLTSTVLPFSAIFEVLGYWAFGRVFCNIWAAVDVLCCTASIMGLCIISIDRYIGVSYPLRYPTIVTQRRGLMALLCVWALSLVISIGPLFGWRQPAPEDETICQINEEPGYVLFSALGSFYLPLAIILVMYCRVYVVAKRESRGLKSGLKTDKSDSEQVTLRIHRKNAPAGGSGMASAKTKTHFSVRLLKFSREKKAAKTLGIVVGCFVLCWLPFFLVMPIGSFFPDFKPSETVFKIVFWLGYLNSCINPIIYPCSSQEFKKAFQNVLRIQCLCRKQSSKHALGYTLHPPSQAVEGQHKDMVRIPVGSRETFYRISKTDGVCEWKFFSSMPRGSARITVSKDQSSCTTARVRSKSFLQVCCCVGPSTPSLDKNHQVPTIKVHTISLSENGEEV
T2 sequence (Q13639 whole entry): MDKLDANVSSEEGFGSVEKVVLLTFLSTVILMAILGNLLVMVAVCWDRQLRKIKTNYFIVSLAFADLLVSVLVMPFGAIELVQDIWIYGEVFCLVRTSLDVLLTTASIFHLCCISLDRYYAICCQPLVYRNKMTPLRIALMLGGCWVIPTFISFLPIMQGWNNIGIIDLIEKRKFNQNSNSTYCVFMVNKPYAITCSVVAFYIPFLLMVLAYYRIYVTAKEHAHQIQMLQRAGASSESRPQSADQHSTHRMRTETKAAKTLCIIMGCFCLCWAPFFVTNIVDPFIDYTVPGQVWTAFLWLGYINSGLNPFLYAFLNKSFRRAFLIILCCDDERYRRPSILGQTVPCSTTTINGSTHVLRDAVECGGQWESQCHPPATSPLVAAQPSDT
T18 sequence (P41143 whole entry): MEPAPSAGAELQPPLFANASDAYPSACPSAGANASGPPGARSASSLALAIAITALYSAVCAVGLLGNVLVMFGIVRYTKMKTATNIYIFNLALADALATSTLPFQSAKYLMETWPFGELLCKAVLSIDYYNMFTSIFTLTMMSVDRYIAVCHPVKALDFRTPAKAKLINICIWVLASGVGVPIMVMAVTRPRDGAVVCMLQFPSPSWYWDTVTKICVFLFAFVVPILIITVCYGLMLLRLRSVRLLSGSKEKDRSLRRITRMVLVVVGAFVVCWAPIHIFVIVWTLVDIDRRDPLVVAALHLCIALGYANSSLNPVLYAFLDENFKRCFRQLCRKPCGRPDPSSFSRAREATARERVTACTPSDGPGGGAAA
T15 sequence (P31391 whole entry): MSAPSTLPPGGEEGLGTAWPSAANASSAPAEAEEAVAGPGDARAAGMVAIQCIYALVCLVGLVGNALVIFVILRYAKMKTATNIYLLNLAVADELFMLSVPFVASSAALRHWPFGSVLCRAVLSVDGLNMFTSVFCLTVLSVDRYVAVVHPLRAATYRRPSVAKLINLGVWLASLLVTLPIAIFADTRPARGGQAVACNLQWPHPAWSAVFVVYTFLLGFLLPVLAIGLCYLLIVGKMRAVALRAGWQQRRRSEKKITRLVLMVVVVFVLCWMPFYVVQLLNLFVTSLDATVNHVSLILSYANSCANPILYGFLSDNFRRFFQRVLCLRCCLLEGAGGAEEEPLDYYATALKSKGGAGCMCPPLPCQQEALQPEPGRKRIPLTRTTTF
T4 sequence (P30542 whole entry): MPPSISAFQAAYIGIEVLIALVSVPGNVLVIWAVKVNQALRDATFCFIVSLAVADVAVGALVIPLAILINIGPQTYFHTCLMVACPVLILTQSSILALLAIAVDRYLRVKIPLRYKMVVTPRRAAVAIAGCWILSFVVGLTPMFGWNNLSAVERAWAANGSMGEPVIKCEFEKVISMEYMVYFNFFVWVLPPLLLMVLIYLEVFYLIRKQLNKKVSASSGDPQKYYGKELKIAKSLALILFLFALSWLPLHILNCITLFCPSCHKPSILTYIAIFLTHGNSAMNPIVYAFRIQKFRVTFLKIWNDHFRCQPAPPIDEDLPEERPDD
T6 sequence (P30556 whole entry): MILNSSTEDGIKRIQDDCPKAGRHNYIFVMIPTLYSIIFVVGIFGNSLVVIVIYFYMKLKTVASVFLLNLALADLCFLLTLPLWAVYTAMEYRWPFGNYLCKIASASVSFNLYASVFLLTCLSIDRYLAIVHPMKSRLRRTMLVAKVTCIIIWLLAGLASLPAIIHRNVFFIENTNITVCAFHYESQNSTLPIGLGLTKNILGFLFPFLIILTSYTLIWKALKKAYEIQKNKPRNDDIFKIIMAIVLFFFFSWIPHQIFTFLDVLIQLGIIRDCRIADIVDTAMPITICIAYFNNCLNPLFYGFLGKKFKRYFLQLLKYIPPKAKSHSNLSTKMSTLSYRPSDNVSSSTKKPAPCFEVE
T14 sequence (P37231 whole entry): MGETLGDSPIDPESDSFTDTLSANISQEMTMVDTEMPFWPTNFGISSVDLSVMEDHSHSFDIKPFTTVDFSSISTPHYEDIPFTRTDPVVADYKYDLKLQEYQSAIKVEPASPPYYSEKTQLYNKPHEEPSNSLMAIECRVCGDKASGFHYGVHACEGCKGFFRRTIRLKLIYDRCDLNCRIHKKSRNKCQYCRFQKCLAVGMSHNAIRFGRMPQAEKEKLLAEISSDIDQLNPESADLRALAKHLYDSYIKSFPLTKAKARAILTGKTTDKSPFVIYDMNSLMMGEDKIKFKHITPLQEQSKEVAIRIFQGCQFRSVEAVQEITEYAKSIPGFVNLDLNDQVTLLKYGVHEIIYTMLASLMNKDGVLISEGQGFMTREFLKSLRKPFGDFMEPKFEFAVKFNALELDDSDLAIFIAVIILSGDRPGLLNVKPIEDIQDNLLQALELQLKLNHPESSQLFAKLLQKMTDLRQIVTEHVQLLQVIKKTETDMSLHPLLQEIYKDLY
T7 sequence (P21554 whole entry): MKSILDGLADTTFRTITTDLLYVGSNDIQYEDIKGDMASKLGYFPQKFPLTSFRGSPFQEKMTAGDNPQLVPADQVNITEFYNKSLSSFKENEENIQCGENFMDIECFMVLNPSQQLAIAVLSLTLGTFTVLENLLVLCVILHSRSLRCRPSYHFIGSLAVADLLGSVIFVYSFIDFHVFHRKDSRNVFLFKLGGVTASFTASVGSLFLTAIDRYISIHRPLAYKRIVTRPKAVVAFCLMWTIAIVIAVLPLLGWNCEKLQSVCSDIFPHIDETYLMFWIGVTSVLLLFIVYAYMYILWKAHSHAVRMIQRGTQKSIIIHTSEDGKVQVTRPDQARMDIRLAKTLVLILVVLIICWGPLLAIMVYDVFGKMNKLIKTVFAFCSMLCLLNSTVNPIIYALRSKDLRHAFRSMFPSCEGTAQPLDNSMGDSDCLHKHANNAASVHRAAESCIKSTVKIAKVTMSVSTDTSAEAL
T11 sequence (P11229 whole entry): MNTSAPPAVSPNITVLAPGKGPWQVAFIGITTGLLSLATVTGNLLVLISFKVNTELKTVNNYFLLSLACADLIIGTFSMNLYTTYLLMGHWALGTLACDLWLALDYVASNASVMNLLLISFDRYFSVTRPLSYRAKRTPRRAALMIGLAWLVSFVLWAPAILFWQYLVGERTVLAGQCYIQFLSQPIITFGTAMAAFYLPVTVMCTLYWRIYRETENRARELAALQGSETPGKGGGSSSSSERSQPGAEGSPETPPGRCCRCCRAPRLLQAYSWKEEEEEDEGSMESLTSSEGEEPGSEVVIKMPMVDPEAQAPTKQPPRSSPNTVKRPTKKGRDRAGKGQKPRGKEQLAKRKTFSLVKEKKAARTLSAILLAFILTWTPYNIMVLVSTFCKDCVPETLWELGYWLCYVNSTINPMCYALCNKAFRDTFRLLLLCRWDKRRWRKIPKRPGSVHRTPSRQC

As usually defined, the Ki is the dissociation constant of the complex between target and ligand, obtained from inhibition or displacement. High values mean lower affinity, low ones higher affinity. Consider `Cn1cc2cc(-c3cc4[nH]nc(C5CC5)c4n(-c4ccc(OC(F)F)cc4)c3=O)ccc2n1` [AZ’9567], for which the Ki on 5-HT2B receptor is 32.4 µM; at 5-HT4 receptor, 10.3 µM; on 5-HT7 receptor, 2.9 µM; at A1 adenosine receptor, 2.6 µM; at A2A adenosine receptor it was 2.2 µM; at AT1 angiotensin receptor, 12.7 µM. Besides, the Ki on CB1 cannabinoid receptor worked out at 30.3 µM; in assay [1], 25.3 µM; on D1 dopamine receptor, 35 µM; in assay [2], 22.6 µM; on M1 muscarinic receptor, 69.7 µM; at M2 muscarinic receptor, 1.8 µM. Also, the Ki in assay [3] is 33.3 µM; in assay [4] it was 33.3 µM; in assay [5], 50.6 µM; at α1A adrenoceptor, 12.7 µM; on α1B adrenoceptor it was 28.9 µM; at δ opioid Receptor, 12.8 µM. The Ki at κ opioid receptor turned out to be 6 µM. Also, in the assay with MTAP KO HCT116 xenograft (20 mg/kg BID, day 24), the “depletion of SAM” value is recorded as over 90%. Besides, the “depletion of SDMA” value in the assay with MTAP KO HCT116 xenograft (20 mg/kg BID, day 24) was over 90%. Also, in the assay with MTAP KO HCT116 xenograft (20 mg/kg BID), the anti-tumour response entry is on record as “robust anti-tumour response”. Moreover, the “anti-tumour and PD modulation (SDMA and SAM)” value in the assay with MTAP KO HCT116 xenograft (3, 10, 30 mg/kg BID) was “robust anti-tumour and PD modulation”.
